2 molecules from paper PMC4076210, “Discovery of Novel AKT Inhibitors with Enhanced Anti-Tumor Effects in Combination with the MEK Inhibitor” (PLoS ONE, 2014) can be followed below.

Where two headings read alike, the source gives them in different places.

By inhibition is commonly meant the drop in the measured response relative to a control, in per cent.

Holding throughout (assay): Kinase panel
Holding throughout (assay type): biochemical

For one test, the target named is T1, CDK5/p35(h) (Homo sapiens, UniProt Q00535).
T1 construct: purchased Millipore KinaseProfiler
T1 sequence (Q00535 whole entry): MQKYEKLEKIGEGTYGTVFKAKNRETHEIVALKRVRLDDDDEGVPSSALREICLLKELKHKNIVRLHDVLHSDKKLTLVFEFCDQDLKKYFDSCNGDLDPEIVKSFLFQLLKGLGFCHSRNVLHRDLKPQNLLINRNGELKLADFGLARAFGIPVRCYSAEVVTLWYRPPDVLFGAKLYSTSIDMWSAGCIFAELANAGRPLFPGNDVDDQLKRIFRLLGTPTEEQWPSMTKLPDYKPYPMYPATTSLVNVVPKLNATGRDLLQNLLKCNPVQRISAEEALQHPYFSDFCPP
T1 sequence (Q15078 whole entry partner): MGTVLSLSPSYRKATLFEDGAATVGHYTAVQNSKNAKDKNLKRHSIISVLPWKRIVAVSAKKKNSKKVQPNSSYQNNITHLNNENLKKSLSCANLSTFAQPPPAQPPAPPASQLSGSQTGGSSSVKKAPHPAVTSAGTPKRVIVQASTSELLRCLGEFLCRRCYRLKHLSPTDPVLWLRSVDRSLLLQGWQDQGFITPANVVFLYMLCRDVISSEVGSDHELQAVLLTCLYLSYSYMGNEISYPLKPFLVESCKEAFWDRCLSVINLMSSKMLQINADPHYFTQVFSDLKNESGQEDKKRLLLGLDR

In another test the target is T2, CDK9/cyclin T1(h) (Homo sapiens, UniProt P50750).
T2 construct: purchased Millipore KinaseProfiler
T2 sequence (P50750 whole entry): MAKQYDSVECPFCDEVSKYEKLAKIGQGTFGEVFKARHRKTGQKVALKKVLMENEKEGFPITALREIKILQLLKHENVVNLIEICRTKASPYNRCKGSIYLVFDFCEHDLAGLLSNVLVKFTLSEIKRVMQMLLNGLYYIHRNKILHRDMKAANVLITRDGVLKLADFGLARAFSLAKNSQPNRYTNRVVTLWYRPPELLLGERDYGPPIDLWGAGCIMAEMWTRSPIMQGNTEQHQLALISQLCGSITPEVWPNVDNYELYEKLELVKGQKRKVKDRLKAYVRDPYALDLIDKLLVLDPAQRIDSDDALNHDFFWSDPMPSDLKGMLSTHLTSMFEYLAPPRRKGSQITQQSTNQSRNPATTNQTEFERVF
T2 sequence (O60563 whole entry partner): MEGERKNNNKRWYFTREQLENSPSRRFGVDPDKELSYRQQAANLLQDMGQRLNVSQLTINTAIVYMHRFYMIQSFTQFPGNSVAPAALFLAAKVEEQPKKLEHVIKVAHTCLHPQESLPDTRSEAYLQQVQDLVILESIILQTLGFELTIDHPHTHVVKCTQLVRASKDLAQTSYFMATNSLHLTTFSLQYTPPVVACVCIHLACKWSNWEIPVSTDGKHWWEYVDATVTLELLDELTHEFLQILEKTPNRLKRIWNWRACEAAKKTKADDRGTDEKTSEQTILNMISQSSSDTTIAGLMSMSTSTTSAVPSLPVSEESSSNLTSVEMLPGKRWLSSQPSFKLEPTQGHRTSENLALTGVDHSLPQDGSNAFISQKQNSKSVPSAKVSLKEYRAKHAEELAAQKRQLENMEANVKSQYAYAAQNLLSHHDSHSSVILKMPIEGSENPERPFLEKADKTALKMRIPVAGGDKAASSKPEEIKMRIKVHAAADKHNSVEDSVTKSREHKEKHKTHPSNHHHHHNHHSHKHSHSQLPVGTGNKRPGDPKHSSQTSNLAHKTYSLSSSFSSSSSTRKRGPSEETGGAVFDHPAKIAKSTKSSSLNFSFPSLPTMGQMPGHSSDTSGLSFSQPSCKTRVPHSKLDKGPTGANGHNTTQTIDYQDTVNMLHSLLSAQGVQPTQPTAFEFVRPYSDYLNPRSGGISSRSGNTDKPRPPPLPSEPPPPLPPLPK

A further test addresses T3, EphB1(h) (Homo sapiens, UniProt P54762).
T3 construct: purchased Millipore KinaseProfiler
T3 sequence (P54762 18-984): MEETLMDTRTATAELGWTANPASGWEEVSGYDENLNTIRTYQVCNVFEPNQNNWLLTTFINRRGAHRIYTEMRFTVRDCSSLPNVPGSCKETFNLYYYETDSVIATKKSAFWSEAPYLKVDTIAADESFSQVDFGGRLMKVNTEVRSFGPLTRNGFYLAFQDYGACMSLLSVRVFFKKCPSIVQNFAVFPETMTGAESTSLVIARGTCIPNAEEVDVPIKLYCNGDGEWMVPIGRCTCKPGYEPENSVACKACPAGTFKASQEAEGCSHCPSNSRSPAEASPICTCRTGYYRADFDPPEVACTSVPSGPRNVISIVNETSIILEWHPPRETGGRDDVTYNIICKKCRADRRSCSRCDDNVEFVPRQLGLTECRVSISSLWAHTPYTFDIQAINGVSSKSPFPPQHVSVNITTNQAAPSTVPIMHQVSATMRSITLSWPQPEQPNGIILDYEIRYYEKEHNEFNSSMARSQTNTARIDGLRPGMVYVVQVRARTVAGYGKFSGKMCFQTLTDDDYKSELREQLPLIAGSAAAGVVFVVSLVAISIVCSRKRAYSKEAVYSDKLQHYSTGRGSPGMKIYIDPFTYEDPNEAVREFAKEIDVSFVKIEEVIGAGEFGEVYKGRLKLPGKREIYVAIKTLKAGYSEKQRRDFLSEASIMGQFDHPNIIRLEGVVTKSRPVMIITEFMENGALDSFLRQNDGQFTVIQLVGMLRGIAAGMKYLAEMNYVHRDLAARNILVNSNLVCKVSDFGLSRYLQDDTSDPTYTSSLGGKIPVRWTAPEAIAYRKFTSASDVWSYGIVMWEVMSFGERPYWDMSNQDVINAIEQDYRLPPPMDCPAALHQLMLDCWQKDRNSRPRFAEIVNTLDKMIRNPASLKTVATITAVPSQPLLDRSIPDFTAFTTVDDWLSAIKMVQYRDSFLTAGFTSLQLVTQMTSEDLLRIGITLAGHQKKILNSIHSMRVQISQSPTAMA

The target of another test is T4, IR(h) (Homo sapiens, UniProt P06213).
T4 construct: purchased Millipore KinaseProfiler
T4 sequence (P06213 28-1382): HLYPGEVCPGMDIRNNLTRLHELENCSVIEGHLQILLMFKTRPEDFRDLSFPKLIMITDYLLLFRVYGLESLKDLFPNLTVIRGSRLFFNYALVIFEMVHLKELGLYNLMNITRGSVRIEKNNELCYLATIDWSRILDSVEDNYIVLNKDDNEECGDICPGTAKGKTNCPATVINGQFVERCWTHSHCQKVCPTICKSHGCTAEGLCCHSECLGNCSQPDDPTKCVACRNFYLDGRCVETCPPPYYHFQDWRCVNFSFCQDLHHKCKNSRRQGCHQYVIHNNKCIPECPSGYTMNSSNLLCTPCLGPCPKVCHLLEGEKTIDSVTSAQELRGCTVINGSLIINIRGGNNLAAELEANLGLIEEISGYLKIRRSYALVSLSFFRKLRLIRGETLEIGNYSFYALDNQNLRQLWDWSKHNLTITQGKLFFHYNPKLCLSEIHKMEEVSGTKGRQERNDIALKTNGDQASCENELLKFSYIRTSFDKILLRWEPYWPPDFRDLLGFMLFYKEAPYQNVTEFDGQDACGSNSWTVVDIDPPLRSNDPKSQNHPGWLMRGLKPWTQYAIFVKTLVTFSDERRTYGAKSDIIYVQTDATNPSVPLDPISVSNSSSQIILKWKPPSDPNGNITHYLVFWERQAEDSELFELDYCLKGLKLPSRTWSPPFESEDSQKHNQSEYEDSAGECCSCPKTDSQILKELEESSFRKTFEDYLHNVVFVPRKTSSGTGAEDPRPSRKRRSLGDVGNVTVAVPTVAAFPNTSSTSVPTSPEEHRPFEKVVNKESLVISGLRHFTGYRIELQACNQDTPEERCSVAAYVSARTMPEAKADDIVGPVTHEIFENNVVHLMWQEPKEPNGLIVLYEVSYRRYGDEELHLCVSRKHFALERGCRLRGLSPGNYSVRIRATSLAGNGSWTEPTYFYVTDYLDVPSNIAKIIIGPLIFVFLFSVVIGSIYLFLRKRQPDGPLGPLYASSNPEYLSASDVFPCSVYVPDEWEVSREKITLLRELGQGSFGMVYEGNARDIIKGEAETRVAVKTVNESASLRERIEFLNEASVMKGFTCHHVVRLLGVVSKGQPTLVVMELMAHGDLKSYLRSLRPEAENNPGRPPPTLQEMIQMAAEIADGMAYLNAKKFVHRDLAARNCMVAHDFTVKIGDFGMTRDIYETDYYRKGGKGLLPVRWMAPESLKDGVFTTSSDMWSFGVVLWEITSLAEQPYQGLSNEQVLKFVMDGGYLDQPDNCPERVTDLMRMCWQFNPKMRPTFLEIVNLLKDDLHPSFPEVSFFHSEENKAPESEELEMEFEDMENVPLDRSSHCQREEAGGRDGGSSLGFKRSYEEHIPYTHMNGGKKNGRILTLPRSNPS

Another test addresses T5, MAPKAP-K3(h) (Homo sapiens, UniProt Q16644).
T5 construct: purchased Millipore KinaseProfiler

A further test concerns the target T6, Plk1(h) (Homo sapiens, UniProt P53350).
T6 construct: purchased Millipore KinaseProfiler

For a further test, the target named is T7, TrkB(h) (Homo sapiens, UniProt Q16620).
T7 construct: purchased Millipore KinaseProfiler
T7 sequence (Q16620 32-822): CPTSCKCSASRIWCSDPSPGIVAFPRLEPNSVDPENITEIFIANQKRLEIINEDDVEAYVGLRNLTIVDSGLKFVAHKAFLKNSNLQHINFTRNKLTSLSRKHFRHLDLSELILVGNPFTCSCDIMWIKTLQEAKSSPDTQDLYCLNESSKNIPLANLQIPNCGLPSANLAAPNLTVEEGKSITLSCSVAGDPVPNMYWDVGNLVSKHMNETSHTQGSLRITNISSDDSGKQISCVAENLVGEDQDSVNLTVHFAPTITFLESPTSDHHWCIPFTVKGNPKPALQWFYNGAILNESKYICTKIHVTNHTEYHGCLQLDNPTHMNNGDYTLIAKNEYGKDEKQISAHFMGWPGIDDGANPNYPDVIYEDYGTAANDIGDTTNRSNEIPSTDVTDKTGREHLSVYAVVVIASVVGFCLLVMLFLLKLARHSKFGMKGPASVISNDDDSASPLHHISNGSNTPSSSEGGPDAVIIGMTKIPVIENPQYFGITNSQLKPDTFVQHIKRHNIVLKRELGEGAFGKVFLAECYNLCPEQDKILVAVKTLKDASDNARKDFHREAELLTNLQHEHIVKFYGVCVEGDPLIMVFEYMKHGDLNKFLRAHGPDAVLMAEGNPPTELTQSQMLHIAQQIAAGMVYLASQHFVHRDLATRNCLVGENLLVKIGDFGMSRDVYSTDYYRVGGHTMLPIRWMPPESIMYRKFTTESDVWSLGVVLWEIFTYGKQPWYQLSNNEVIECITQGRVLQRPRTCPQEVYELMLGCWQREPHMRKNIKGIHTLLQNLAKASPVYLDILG

A further test concerns the target T8, ULK2(h) (Homo sapiens, UniProt Q8IYT8).
T8 construct: purchased Millipore KinaseProfiler
T8 sequence (Q8IYT8 1-1036): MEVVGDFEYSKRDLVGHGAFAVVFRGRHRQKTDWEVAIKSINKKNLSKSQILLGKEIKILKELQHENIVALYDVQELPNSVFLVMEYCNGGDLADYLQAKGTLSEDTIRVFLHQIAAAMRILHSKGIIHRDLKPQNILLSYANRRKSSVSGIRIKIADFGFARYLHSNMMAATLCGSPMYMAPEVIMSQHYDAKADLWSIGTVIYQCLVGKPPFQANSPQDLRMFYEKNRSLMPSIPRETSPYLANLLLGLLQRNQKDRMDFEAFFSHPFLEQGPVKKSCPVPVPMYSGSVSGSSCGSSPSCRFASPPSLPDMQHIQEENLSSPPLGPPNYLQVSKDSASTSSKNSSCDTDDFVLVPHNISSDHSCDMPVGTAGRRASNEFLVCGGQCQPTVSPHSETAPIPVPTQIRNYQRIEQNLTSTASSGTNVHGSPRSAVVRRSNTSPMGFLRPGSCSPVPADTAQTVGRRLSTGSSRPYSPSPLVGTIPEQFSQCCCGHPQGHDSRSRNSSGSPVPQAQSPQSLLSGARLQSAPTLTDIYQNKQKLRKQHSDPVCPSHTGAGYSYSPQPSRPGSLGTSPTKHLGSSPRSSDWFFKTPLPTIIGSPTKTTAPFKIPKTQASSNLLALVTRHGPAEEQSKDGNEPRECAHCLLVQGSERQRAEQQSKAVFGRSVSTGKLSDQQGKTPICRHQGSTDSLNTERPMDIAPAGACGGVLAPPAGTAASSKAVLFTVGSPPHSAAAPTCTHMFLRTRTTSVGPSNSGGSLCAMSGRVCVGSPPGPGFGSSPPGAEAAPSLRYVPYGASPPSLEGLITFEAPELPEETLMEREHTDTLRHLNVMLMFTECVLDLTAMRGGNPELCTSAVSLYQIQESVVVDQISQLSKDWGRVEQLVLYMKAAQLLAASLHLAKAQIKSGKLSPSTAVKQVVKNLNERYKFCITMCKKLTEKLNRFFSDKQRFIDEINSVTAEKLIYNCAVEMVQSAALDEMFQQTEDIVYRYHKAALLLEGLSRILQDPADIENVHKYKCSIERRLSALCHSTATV

For a further test, the target named is T9, ULK3(h) (Homo sapiens, UniProt Q6PHR2).
T9 construct: purchased Millipore KinaseProfiler
T9 sequence (Q6PHR2 1-472): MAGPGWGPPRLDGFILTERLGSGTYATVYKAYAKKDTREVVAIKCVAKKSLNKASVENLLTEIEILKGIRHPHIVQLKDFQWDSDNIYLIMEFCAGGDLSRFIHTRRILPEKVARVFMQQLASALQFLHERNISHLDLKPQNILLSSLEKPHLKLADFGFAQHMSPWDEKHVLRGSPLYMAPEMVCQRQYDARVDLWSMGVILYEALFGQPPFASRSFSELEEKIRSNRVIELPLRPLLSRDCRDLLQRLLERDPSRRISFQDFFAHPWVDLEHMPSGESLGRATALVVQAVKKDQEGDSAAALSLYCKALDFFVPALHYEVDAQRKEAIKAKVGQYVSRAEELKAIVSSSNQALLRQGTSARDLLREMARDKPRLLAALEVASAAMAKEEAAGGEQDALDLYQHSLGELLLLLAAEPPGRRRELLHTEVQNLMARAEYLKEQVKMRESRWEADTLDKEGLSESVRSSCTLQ

T6 sequence (P53350 whole entry): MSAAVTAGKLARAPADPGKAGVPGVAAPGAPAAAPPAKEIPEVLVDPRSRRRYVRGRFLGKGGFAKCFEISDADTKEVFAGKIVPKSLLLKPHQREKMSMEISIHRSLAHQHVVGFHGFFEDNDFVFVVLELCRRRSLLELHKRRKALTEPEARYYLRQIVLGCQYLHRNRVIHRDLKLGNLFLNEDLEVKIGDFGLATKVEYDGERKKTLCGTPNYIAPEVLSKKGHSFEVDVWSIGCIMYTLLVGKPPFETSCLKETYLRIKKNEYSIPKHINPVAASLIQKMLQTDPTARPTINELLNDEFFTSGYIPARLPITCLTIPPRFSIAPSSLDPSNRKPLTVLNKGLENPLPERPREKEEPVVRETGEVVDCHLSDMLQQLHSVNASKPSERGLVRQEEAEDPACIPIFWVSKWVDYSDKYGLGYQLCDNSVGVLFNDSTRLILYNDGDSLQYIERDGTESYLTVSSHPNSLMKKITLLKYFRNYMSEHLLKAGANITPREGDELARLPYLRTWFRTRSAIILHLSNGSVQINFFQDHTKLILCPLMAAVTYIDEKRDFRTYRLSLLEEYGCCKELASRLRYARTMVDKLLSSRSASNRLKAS
T5 sequence (Q16644 whole entry): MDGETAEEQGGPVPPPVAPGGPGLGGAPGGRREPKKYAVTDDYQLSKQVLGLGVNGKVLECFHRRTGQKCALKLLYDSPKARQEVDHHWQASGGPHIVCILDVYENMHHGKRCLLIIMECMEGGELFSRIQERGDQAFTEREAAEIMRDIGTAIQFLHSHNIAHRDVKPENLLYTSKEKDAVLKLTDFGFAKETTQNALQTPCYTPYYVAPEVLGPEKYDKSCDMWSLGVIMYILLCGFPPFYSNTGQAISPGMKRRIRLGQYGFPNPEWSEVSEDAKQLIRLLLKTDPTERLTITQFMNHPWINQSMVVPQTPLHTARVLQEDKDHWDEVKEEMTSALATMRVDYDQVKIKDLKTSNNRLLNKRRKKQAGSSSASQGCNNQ

For `Cn1ncc(Cl)c1-c1cc(C(=O)N[C@H](CN)Cc2cccc(F)c2)sc1Cl` [GSK2110183], the inhibition at 0.5 µM against CDK5/p35(h) was -10%; at CDK9/cyclin T1(h), 0%; against EphB1(h), -2%; on IR(h), 35%; against MAPKAP-K3(h) it was 4%; on Plk1(h), -21%. The values for the inhibition at 0.5 µM on TrkB(h), on ULK2(h) and at ULK3(h) were 15%, 0% and 20%, respectively. The inhibition at 10 µM was 17% on CDK5/p35(h); 48% at CDK9/cyclin T1(h); -4% against EphB1(h); 32% at IR(h); 10% at MAPKAP-K3(h); -6% at Plk1(h). The values for the inhibition at 10 µM at TrkB(h), on ULK2(h) and on ULK3(h) were 74%, 15% and 72%, respectively.

Regarding `Cn1ncc(Cl)c1-c1cc(C(=O)N[C@H](CN)Cc2ccc(F)c(F)c2)oc1Cl` [GSK2141795], the inhibition at 0.5 µM was -14% on CDK5/p35(h) (0.5 µM, read-out: % Inhibition); 15% on CDK9/cyclin T1(h) (0.5 µM, read-out: % Inhibition); -5% at EphB1(h) (0.5 µM, read-out: % Inhibition); -8% on IR(h) (0.5 µM, read-out: % Inhibition); -8% at MAPKAP-K3(h) (0.5 µM, read-out: % Inhibition); -34% on Plk1(h) (0.5 µM, read-out: % Inhibition). In addition, the inhibition at 0.5 µM at TrkB(h) (0.5 µM, read-out: % Inhibition) came out at 27%; on ULK2(h) (0.5 µM, read-out: % Inhibition) it was 6%; at ULK3(h) (0.5 µM, read-out: % Inhibition), 0%. For the same molecule, the inhibition at 10 µM is 32% at CDK5/p35(h) (10 µM, read-out: % Inhibition); 72% on CDK9/cyclin T1(h) (10 µM, read-out: % Inhibition); -5% on EphB1(h) (10 µM, read-out: % Inhibition); 41% at IR(h) (10 µM, read-out: % Inhibition); -2% on MAPKAP-K3(h) (10 µM, read-out: % Inhibition); 8% on Plk1(h) (10 µM, read-out: % Inhibition). Besides, the inhibition at 10 µM is 85% on TrkB(h) (10 µM, read-out: % Inhibition); 26% at ULK2(h) (10 µM, read-out: % Inhibition); 49% at ULK3(h) (10 µM, read-out: % Inhibition).
